This note sets out measurements from article PMC12866179, “Oxidized MIF is an Alzheimer’s disease drug target relaying external risk factors to tau pathology” (Cell Reports Medicine, 2025).

For series [1], the system named is tau phosphorylation and aggregation. Nature of the series: Treatment of tgTau58/2 mice, tau phosphorylation and sarkosyl-insoluble tau in brain. The format is in vivo. Conditions: tau58/2 mice. The text has this: TgTau58/2 mice[44] that express the human 0N4R tau isoform with the P301Smutation under control of the mouse Thy1.2 promoter were a kind gift from Novartis (Boston, USA). Experimental animals were two months old, male, and heterozygous for the transgene. Wildtype littermates on C57BL/6J background served as control. The mice were maintained in pathogen-free conditions in the Animal Facility at the University of Düsseldorf, Germany, fed ad libitum with standard laboratory chow and water in ventilated cages under a 12h light/dark cycle. All experiments were in conformity with the Animal Protection Law approved by local authorities (LANUV NRW, Recklinghausen, Germany).
TgTau58/2 mice[44] were a kind gift from Novartis (Boston, USA). Two months-old males, heterozygous for the tau-P301S transgene (n = 12 per group), were either treated with 10% DMSO or 5 mg/kg body weight compound PAV-617 for four weeks administering 100 μL volumes intraperitoneally three times a week, after which animals were perfused with PBS and terminated. The brains were extracted cut into two-halves and flash frozen in liquid N2. One brain halve was homogenized in cold extraction buffer (10 mM Tris pH7.4, 1mM EGTA, 0.8M NaCl, 10% sucrose, 1x Protease inhibitor cocktail, 1x phosphatase inhibitor cocktail 2) to 10%. For screening 1% NP40, 0.1mg/mL DNAseI and 5 mM MgSO4 were added to the homogenates and after 30 min incubation on ice the protein concentration was determined using the DC Protein Assay Kit (Bio-Rad). Equal amounts of protein were then either directly used for detection of tau in the whole homogenate by immunoblot or sarkosyl insoluble tau was precipitated following a protocol of.[93] 750 μg lysate were centrifuged at 6,000g for 20 min at 4°C. Then the supernatant was carefully taken and sarkosyl was added to 1% end concentration. After an incubation for 1h at RT the samples were spun down at 100,000g for 1h at 4°C. The supernatants were removed and the pellets carefully washed with 200 μL extraction buffer without sucrose. […]

Details of series [2]: species or system SD rats. Conditions: rat, in vivo, ip, 5 mg/kg. Here is the method: Figure S5. PAV-17 4 decreases ta u phosphorylation and aggr e gat ion in vi v o. Rel a ted to […]
(A) MTD (Maximum Tol erated Dose) assessment of PAV com pounds in BALB/c mice. BALB/c mice we re dosed through int ra pe rit o ne al (IP ) ro ute at di ff e ren t doses as pe r bo dy we igh t of an ima ls an d mice we re obser ved at di ff e ren t time interval for toxic signs till 48 h, PD (Post dose) . MTD at wa s declared at NOAEL (No-obser ved-adver se-effect level) conc. of PAV […]
(B) PAV-61 7 dose- an d MIF-de pe nd en t ly reduces tau phosphorylati on (A T8) . SH-SY5Y-P301S-control or -MIF-knockdown cel ls we re treated with the indicated concentrations of PAV- […]
cel ls. The di ag ram s show the signals of AT8 normalized to total tau (HT7 ) from six (n =6) in de pe nd en t exper iments. One-wa y ANOVA (Sidak´s post-hoc)
(C) Pharmacokinetic assessment of PAV-61 7 in Sprague Da wley ra ts (S D). Ma le SD ra ts (n=4) we re dosed via three ro utes na me ly intravenous (IV )- 1 mg/kg, (IP )- 5 mg/kg an d per ora l (P O)- 5 mg/kg. Plasma concentration wa s anal yzed at di ff e ren t time intervals. Pharmacokinetic pa ra met e rs we re de t erm ine d usi ng Win No nlin . Cma x (p ea k pl asma concentration) achieved through IV wa s 12 8 ng / mL, IP wa s 36 2. 6 ng / mL an d PO wa s 15 1. 1 ng / mL at Tmax (time of pe ak concentration obser ved) 1 h, 0. 5 h an d 4 h respectively. […]

Take `[I-].c1cc2nc3ccc(N4CCCC4)cc3[s+]c2cc1N1CCCC1` [PAV-617, 3,7-Di(pyrrolidine-1-yl)phenothiazine-5-ium iodide]: in series [1] (5 mg/kg), the “phosphorylated tau (AT8) in brain homogenates” value is “reduced” and the “phosphorylated tau (PHF-1) in the sarkosyl-insoluble fraction” value is “Significantly less”. Moreover, in series [1] (5 mg/kg i.p. three times a week for four weeks), the “HT7-normalized phosphorylated tau (PHF-1) in brain homogenates” value was “reduced”. For the same molecule, the tissue penetration entry in series [2] is recorded as “good tissue penetration, including the brain”.
